Measurements taken from PubChem BioAssay (NCI).
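Protocol summary: plate cells (96-well), add compound at 5 concentrations, incubate 48 h, interpolate endpoints linearly. TGI marks complete inhibition of growth.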

Tests used:
Experiment in all cases: NCI-60 cell line screen, 48 h
OVCAR-3 ovarian = tested on: OVCAR-3 ovarian
CAKI-1 renal = tested on: CAKI-1 renal
NCI-H226 lung = tested on: NCI-H226 lung
LXFL 529 NSCLC = tested on: LXFL 529 NSCLC
M14 melanoma = tested on: M14 melanoma
MALME-3M melanoma = tested on: MALME-3M melanoma
KM20L2 colon = tested on: KM20L2 colon
KM12 colon = tested on: KM12 colon
OVCAR-8 ovarian = tested on: OVCAR-8 ovarian
COLO 205 colon = tested on: COLO 205 colon
IGROV1 ovarian = tested on: IGROV1 ovarian
OVCAR-5 ovarian = tested on: OVCAR-5 ovarian
TK-10 renal = tested on: TK-10 renal
HOP-62 NSCLC = tested on: HOP-62 NSCLC
HCT-15 colon = tested on: HCT-15 colon
HL-60(TB) leukemia = tested on: HL-60(TB) leukemia
UACC-62 melanoma = tested on: UACC-62 melanoma
SK-OV-3 ovarian = tested on: SK-OV-3 ovarian
LOX IMVI melanoma = tested on: LOX IMVI melanoma
SW-620 colon = tested on: SW-620 colon
NCI-H522 lung = tested on: NCI-H522 lung
DMS 273 small cell lung = tested on: DMS 273 small cell lung
SK-MEL-2 melanoma = tested on: SK-MEL-2 melanoma
RXF-631 renal = tested on: RXF-631 renal
CCRF-CEM leukemia = tested on: CCRF-CEM leukemia
SK-MEL-28 melanoma = tested on: SK-MEL-28 melanoma
SNB-19 CNS = tested on: SNB-19 CNS
A498 renal = tested on: A498 renal
RPMI-8226 leukemia = tested on: RPMI-8226 leukemia
SF-295 CNS = tested on: SF-295 CNS
K-562 leukemia = tested on: K-562 leukemia
NCI-H23 lung = tested on: NCI-H23 lung
DLD-1 colon = tested on: DLD-1 colon
SN12C renal = tested on: SN12C renal
MOLT-4 leukemia = tested on: MOLT-4 leukemia
U251 CNS = tested on: U251 CNS
NCI-H460 lung = tested on: NCI-H460 lung
OVCAR-4 ovarian = tested on: OVCAR-4 ovarian
M19-MEL melanoma = tested on: M19-MEL melanoma
SR leukemia = tested on: SR leukemia
SNB-75 CNS = tested on: SNB-75 CNS
DMS 114 small cell lung = tested on: DMS 114 small cell lung
UO-31 renal = tested on: UO-31 renal
SK-MEL-5 melanoma = tested on: SK-MEL-5 melanoma
HCC-2998 colon = tested on: HCC-2998 colon
SF-539 CNS = tested on: SF-539 CNS
SNB-78 CNS = tested on: SNB-78 CNS
UACC-257 melanoma = tested on: UACC-257 melanoma
SF-268 CNS = tested on: SF-268 CNS
786-0 renal = tested on: 786-0 renal
EKVX NSCLC = tested on: EKVX NSCLC
HCT-116 colon = tested on: HCT-116 colon
HOP-92 NSCLC = tested on: HOP-92 NSCLC
RXF 393 renal = tested on: RXF 393 renal
HOP-18 NSCLC = tested on: HOP-18 NSCLC
ACHN renal = tested on: ACHN renal
HT29 colon = tested on: HT29 colon
A549 NSCLC = tested on: A549 NSCLC
XF 498 CNS = tested on: XF 498 CNS

CCN1C(=O)N2C(OC)c3ccccc3C(Br)C2(OC)C1=O (configuration not stated)
TGI (OVCAR-3 ovarian): > 100 µM
TGI (CAKI-1 renal): > 100 µM
TGI (NCI-H226 lung): > 100 µM
TGI (LXFL 529 NSCLC): > 100 µM
TGI (M14 melanoma): > 100 µM
TGI (MALME-3M melanoma): > 100 µM
TGI (KM20L2 colon): > 100 µM
TGI (KM12 colon): > 100 µM
TGI (OVCAR-8 ovarian): > 100 µM
TGI (COLO 205 colon): > 100 µM
TGI (IGROV1 ovarian): > 100 µM
TGI (OVCAR-5 ovarian): > 100 µM
TGI (TK-10 renal): > 100 µM
TGI (HOP-62 NSCLC): > 100 µM
TGI (HCT-15 colon): > 100 µM
TGI (HL-60(TB) leukemia): > 100 µM
TGI (UACC-62 melanoma): > 100 µM
TGI (SK-OV-3 ovarian): > 100 µM
TGI (LOX IMVI melanoma): > 100 µM
TGI (SW-620 colon): > 100 µM
TGI (NCI-H522 lung): > 100 µM
TGI (DMS 273 small cell lung): > 100 µM
TGI (SK-MEL-2 melanoma): > 100 µM
TGI (RXF-631 renal): > 100 µM
TGI (CCRF-CEM leukemia): > 100 µM
TGI (SK-MEL-28 melanoma): > 100 µM
TGI (SNB-19 CNS): > 100 µM
TGI (A498 renal): > 100 µM
TGI (RPMI-8226 leukemia): > 100 µM
TGI (SF-295 CNS): > 100 µM
TGI (K-562 leukemia): > 100 µM
TGI (NCI-H23 lung): > 100 µM
TGI (DLD-1 colon): > 100 µM
TGI (SN12C renal): > 100 µM
TGI (MOLT-4 leukemia): > 100 µM
TGI (U251 CNS): > 100 µM
TGI (NCI-H460 lung): > 100 µM
TGI (OVCAR-4 ovarian): > 100 µM
TGI (M19-MEL melanoma): > 100 µM
TGI (SR leukemia): > 100 µM
TGI (SNB-75 CNS): > 100 µM
TGI (DMS 114 small cell lung): > 100 µM
TGI (UO-31 renal): > 100 µM
TGI (SK-MEL-5 melanoma): > 100 µM
TGI (HCC-2998 colon): > 100 µM

CCN(CC)C(=S)S
TGI (NCI-H226 lung): > 100 µM
TGI (LXFL 529 NSCLC): > 100 µM
TGI (M14 melanoma): > 59.8 µM
TGI (MALME-3M melanoma): 60.4 µM
TGI (KM20L2 colon): > 100 µM
TGI (KM12 colon): > 100 µM
TGI (OVCAR-8 ovarian): > 100 µM
TGI (COLO 205 colon): > 100 µM
TGI (SF-539 CNS): > 100 µM
TGI (IGROV1 ovarian): > 100 µM
TGI (SNB-78 CNS): > 100 µM
TGI (OVCAR-5 ovarian): > 100 µM
TGI (UACC-257 melanoma): 65.1 µM
TGI (TK-10 renal): > 100 µM
TGI (HOP-62 NSCLC): > 100 µM
TGI (HCT-15 colon): > 100 µM
TGI (HL-60(TB) leukemia): 33.3 µM
TGI (UACC-62 melanoma): 12.3 µM
TGI (SK-OV-3 ovarian): > 100 µM
TGI (LOX IMVI melanoma): > 100 µM
TGI (SF-268 CNS): > 100 µM
TGI (SW-620 colon): > 100 µM
TGI (NCI-H522 lung): 0.362 µM
TGI (SK-MEL-2 melanoma): > 100 µM
TGI (RXF-631 renal): > 67.4 µM
TGI (786-0 renal): > 100 µM
TGI (CCRF-CEM leukemia): 9.46 µM
TGI (SK-MEL-28 melanoma): > 84.6 µM
TGI (SNB-19 CNS): > 100 µM
TGI (A498 renal): > 100 µM
TGI (RPMI-8226 leukemia): > 100 µM
TGI (SF-295 CNS): > 100 µM
TGI (K-562 leukemia): 30.1 µM
TGI (EKVX NSCLC): > 100 µM
TGI (HCT-116 colon): 19.7 µM
TGI (DLD-1 colon): > 100 µM
TGI (SN12C renal): > 100 µM
TGI (HOP-92 NSCLC): > 100 µM
TGI (RXF 393 renal): > 100 µM
TGI (HOP-18 NSCLC): > 100 µM
TGI (M19-MEL melanoma): > 37.5 µM
TGI (ACHN renal): > 100 µM
TGI (UO-31 renal): > 100 µM
TGI (SK-MEL-5 melanoma): > 43.6 µM
TGI (HCC-2998 colon): > 100 µM

Cc1csc(CCC(N)C(=O)O)n1 (configuration not stated)
TGI (OVCAR-3 ovarian): > 100 µM
TGI (CAKI-1 renal): > 100 µM
TGI (NCI-H226 lung): > 100 µM
TGI (LXFL 529 NSCLC): > 100 µM
TGI (M14 melanoma): > 100 µM
TGI (MALME-3M melanoma): > 100 µM
TGI (KM12 colon): > 100 µM
TGI (OVCAR-8 ovarian): > 100 µM
TGI (COLO 205 colon): > 100 µM
TGI (SF-539 CNS): > 100 µM
TGI (IGROV1 ovarian): > 100 µM
TGI (SNB-78 CNS): > 100 µM
TGI (UACC-257 melanoma): > 100 µM
TGI (HT29 colon): > 100 µM
TGI (TK-10 renal): > 100 µM
TGI (HCT-15 colon): > 100 µM
TGI (UACC-62 melanoma): > 100 µM
TGI (SK-OV-3 ovarian): > 100 µM
TGI (LOX IMVI melanoma): > 100 µM
TGI (SW-620 colon): > 100 µM
TGI (NCI-H522 lung): > 100 µM
TGI (DMS 273 small cell lung): > 100 µM
TGI (786-0 renal): > 100 µM
TGI (CCRF-CEM leukemia): > 100 µM
TGI (SK-MEL-28 melanoma): > 100 µM
TGI (RPMI-8226 leukemia): > 100 µM
TGI (SF-295 CNS): > 100 µM
TGI (K-562 leukemia): > 100 µM
TGI (EKVX NSCLC): > 100 µM
TGI (NCI-H23 lung): > 100 µM
TGI (A549 NSCLC): > 100 µM
TGI (HCT-116 colon): > 100 µM
TGI (DLD-1 colon): > 100 µM
TGI (SN12C renal): > 100 µM
TGI (HOP-92 NSCLC): > 100 µM
TGI (MOLT-4 leukemia): > 100 µM
TGI (RXF 393 renal): > 100 µM
TGI (HOP-18 NSCLC): > 100 µM
TGI (U251 CNS): > 100 µM
TGI (NCI-H460 lung): > 100 µM
TGI (M19-MEL melanoma): > 100 µM
TGI (SNB-75 CNS): > 100 µM
TGI (ACHN renal): > 100 µM
TGI (UO-31 renal): > 100 µM
TGI (SK-MEL-5 melanoma): > 100 µM
TGI (HCC-2998 colon): > 100 µM

NC(=O)C(=O)Cc1nc2ccccc2s1
TGI (OVCAR-3 ovarian): > 100 µM
TGI (NCI-H226 lung): > 100 µM
TGI (LXFL 529 NSCLC): > 100 µM
TGI (M14 melanoma): > 100 µM
TGI (MALME-3M melanoma): > 100 µM
TGI (KM20L2 colon): > 100 µM
TGI (KM12 colon): > 100 µM
TGI (OVCAR-8 ovarian): > 100 µM
TGI (COLO 205 colon): > 100 µM
TGI (SF-539 CNS): > 100 µM
TGI (SNB-78 CNS): > 100 µM
TGI (OVCAR-5 ovarian): > 100 µM
TGI (UACC-257 melanoma): > 100 µM
TGI (HT29 colon): > 100 µM
TGI (TK-10 renal): > 100 µM
TGI (HOP-62 NSCLC): > 100 µM
TGI (HCT-15 colon): > 100 µM
TGI (HL-60(TB) leukemia): > 100 µM
TGI (SK-OV-3 ovarian): > 100 µM
TGI (LOX IMVI melanoma): > 100 µM
TGI (SF-268 CNS): > 100 µM
TGI (SW-620 colon): > 100 µM
TGI (NCI-H522 lung): > 100 µM
TGI (SK-MEL-2 melanoma): > 100 µM
TGI (786-0 renal): > 100 µM
TGI (CCRF-CEM leukemia): > 100 µM
TGI (SK-MEL-28 melanoma): > 100 µM
TGI (SNB-19 CNS): > 100 µM
TGI (A498 renal): > 100 µM
TGI (RPMI-8226 leukemia): > 100 µM
TGI (SF-295 CNS): > 100 µM
TGI (K-562 leukemia): > 100 µM
TGI (EKVX NSCLC): > 100 µM
TGI (NCI-H23 lung): > 100 µM
TGI (A549 NSCLC): > 100 µM
TGI (HCT-116 colon): > 100 µM
TGI (SN12C renal): > 100 µM
TGI (HOP-92 NSCLC): > 100 µM
TGI (MOLT-4 leukemia): > 100 µM
TGI (RXF 393 renal): > 100 µM
TGI (XF 498 CNS): > 100 µM
TGI (HOP-18 NSCLC): > 100 µM
TGI (U251 CNS): > 100 µM
TGI (NCI-H460 lung): > 100 µM
TGI (OVCAR-4 ovarian): > 100 µM
TGI (M19-MEL melanoma): > 100 µM
TGI (SNB-75 CNS): > 100 µM
TGI (DMS 114 small cell lung): > 100 µM
TGI (ACHN renal): > 100 µM
TGI (UO-31 renal): > 100 µM
TGI (HCC-2998 colon): > 100 µM
